Values belong to the compound of their own block, whether it stands above or below them.
Experiments:
Format in all cases: physicochemical
[1] = High humidity test (stability); conditions: for Stability in the high-humidity test (conclusion) / Appearance and color / Content / Weight gain of moisture absorption / Related substances: 25° C., relative humidity 75±5%; for Stability in the high-humidity test (conclusion): 10 days; for Related substances: HPLC; for Weight gain of moisture absorption (trend): under the high-humidity condition
Procedure: (§1) In the following test, related substances were determined as follows: HPLC method was used and chromatographic conditions were as follows: C18 column using octadecylsilane bonded silica gel as the filler, isocratic elution using methanol: 0.5% glacial acetic acid solution (10:90) as the mobile phase, and detection wavelength was at 254 nm.
Crystalline Form A of Temozolomide (Form A0 prepared by the method of EXAMPLE 1) was placed in 25° C. incubator (relative humidity: 75±5%), sampled and determined on the 5th and 10th day.
Crystalline Form B of Temozolomide (Form B0 prepared by the method of EXAMPLE 6) was placed in 25° C. incubator (relative humidity: 75±5%), sampled and determined on the 5th and 10th day.
Crystalline Form C of Temozolomide (Form C prepared by the method of EXAMPLE 14) was placed in 25° C. incubator (relative humidity: 75±5%), sampled and determined on the 5th and 10th day.

[2] = Light exposure test (stability); conditions: for Stability in the light exposure test (conclusion): 4500±500Lx, 10 days; for Appearance and color / Content / Drying loss / Related substances: light intensity 4500±500Lx; for Related substances: HPLC
Procedure: as §1
Crystalline form A of Temozolomide (Form A0 prepared by the method of EXAMPLE 1) was exposed under conditions of light intensity of 4500±500Lx, sampled and determined on the 5th and 10th day.
Crystalline form B of Temozolomide (Form B0 prepared by the method of EXAMPLE 6) was placed, exposed under conditions of light intensity of 4500±500Lx, sampled and determined on the 5th and 10th day.
Crystalline Form C of Temozolomide (Form C prepared by the method of EXAMPLE 14) was placed, exposed under conditions of light intensity of 4500±500Lx, sampled and determined on the 5th and 10th day.

[3] = Stability test, overall conclusions; conditions: light exposure, high-temperature, high-humidity and accelerated tests
Procedure: as §1
It should be noted that each crystalline form of Form A, Form B and Form C has similar stability properties. Hereinafter, Form A0, Form B0 and Form C were chosen only for illustrative purpose.

[4] = Accelerated test (stability); conditions: 40±2° C., relative humidity 75±5%; for Stability in the accelerated test (conclusion): 6 months; for Appearance and color / Content / Related substances: polyethylene film bag; for Related substances: HPLC
Procedure: as §1
Crystalline Form A of Temozolomide (Form A0 prepared by the method of EXAMPLE 1) was sealed by a polyethylene film bag, placed under conditions of 40±2° C. and a relative humidity of 75±5% for 6 months, sampled and determined at the end of the 1st,2nd, 3rd and 6th month.
Crystalline Form B of Temozolomide (Form B0 prepared by the method of EXAMPLE 6) was sealed with a polyethylene film bag and placed under conditions of 40±2° C. and a relative humidity of 75±5% for 6 months, sampled and determined at the end of the 1st, 2nd, 3rd and 6th month.
Crystalline Form C of Temozolomide (Form C prepared by the method of EXAMPLE 14) was sealed with a polyethylene film bag and placed under conditions of 40±2° C. and a relative humidity of 75±5% for 6 months, sampled and determined at the end of the 1st, 2nd, 3rd and 6th month.

Solubility test = conditions: for Amount of solvent for dissolving tested drug: about 10 mg tested drug
Procedure: It should be noted that each crystalline form of Form A, Form B and Form C has similar solubility properties. Hereinafter, Form A0, B0 and C were chosen only for illustrative purpose.
1. Solubility test of the crystalline Form A of Temozolomide (Form A0 prepared by the method of EXAMPLE 1). Solubility properties were assayed respectively by using DMSO, methanol, water, glacial acetic acid, 0.1M HCl, 0.1M NaOH and ethanol as the solvents.
2. Solubility test of the crystalline form B of Temozolomide (Form B0 prepared by the method of EXAMPLE 6). Solubility properties were assayed respectively by using DMSO, methanol, water, glacial acetic acid, 0.1M HCl, 0.1M NaOH and ethanol as the solvents.
3. Solubility test of the crystalline form C of Temozolomide (Form C prepared by the method of EXAMPLE 14). Solubility properties were assayed respectively by using DMSO, methanol, water, glacial acetic acid, 0.1M HCl, 0.1M NaOH and ethanol as the solvents.

Stability in the high-humidity test (conclusion) [1]: stable | Appearance and color ([1]; 0th day): White powder | Content ([1]; 0th day): 99.91% | Weight gain of moisture absorption ([1]; 0th day): 0% | Related substances ([1]; 0th day): Not detected | Appearance and color ([1]; 5th day): White powder | Content ([1]; 5th day): 99.85% | Weight gain of moisture absorption ([1]; 5th day): 0.29% | Related substances ([1]; 5th day): Not detected | Appearance and color ([1]; 10th day): White powder | Content ([1]; 10th day): 99.63% | Weight gain of moisture absorption ([1]; 10th day): 0.47% | Related substances ([1]; 10th day): Not detected | Weight gain of moisture absorption (trend) [1]: slightly increased | Stability in the light exposure test (conclusion) [2]: stable | Appearance and color ([2]; 0th day): White powder | Content ([2]; 0th day): 99.91% | Drying loss ([2]; 0th day): 0.27% | Related substances ([2]; 0th day): Not detected | Appearance and color ([2]; 5th day): White powder | Content ([2]; 5th day): 99.90% | Drying loss ([2]; 5th day): 0.30% | Related substances ([2]; 5th day): Not detected | Appearance and color ([2]; 10th day): White powder | Content ([2]; 10th day): 99.96% | Drying loss ([2]; 10th day): 0.32% | Related substances ([2]; 10th day): Not detected | Change in the appearance and color, the drying loss, the content and the related substances [3]: no obvious change | Stability in the accelerated test (conclusion) [4]: stable | Appearance and color ([4]; 0th month): White powder | Content ([4]; 0th month): 99.91% | Related substances ([4]; 0th month): Not detected | Appearance and color ([4]; 1st month): White powder | Content ([4]; 1st month): 99.61% | Related substances ([4]; 1st month): Not detected | Appearance and color ([4]; 2nd month): White powder | Content ([4]; 2nd month): 99.87% | Related substances ([4]; 2nd month): Not detected | Appearance and color ([4]; 3rd month): White powder | Content ([4]; 3rd month): 99.93% | Related substances ([4]; 3rd month): Not detected | Appearance and color ([4]; 6th month): White powder | Content ([4]; 6th month): 99.65% | Related substances ([4]; 6th month): Not detected | Amount of solvent for dissolving 1 g of tested drug (Solubility test; solvent 0.1M HCl): 800 mL | Solubility (Solubility test; solvent 0.1M HCl): Slightly soluble | Amount of solvent for dissolving tested drug (Solubility test; solvent 0.1M HCl): 8.0 mL | Amount of solvent for dissolving 1 g of tested drug (Solubility test; solvent 0.1M NaOH): 300 mL | Solubility (Solubility test; solvent 0.1M NaOH): Slightly soluble | Amount of solvent for dissolving tested drug (Solubility test; solvent 0.1M NaOH): 3.0 mL | Amount of solvent for dissolving 1 g of tested drug (Solubility test; solvent DMSO): 80 mL | Solubility (Solubility test; solvent DMSO): sparingly | Amount of solvent for dissolving tested drug (Solubility test; solvent DMSO): 0.8 mL | Amount of solvent for dissolving 1 g of tested drug (Solubility test; solvent Ethanol): 6000 mL | Solubility (Solubility test; solvent Ethanol): Very slightly | Amount of solvent for dissolving tested drug (Solubility test; solvent Ethanol): 60 mL | Amount of solvent for dissolving 1 g of tested drug (Solubility test; solvent Glacial acetic acid): 300 mL | Solubility (Solubility test; solvent Glacial acetic acid): Slightly soluble | Amount of solvent for dissolving tested drug (Solubility test; solvent Glacial acetic acid): 3.0 mL | Amount of solvent for dissolving 1 g of tested drug (Solubility test; solvent Methanol): 800 mL | Solubility (Solubility test; solvent Methanol): Slightly soluble | Amount of solvent for dissolving tested drug (Solubility test; solvent Methanol): 8.0 mL | Amount of solvent for dissolving 1 g of tested drug (Solubility test; solvent Water): 800 mL | Solubility (Solubility test; solvent Water): Slightly soluble | Amount of solvent for dissolving tested drug (Solubility test; solvent Water): 8.0 mL
SMILES: Cn1nnc2c(C(N)=O)ncn2c1=O [Form C, Temozolomide]

Stability in the high-humidity test (conclusion) [1]: stable | Appearance and color ([1]; 0th day): White powder | Content ([1]; 0th day): 99.94% | Weight gain of moisture absorption ([1]; 0th day): 0% | Related substances ([1]; 0th day): Not detected | Appearance and color ([1]; 5th day): White powder | Content ([1]; 5th day): 99.73% | Weight gain of moisture absorption ([1]; 5th day): 0.32% | Related substances ([1]; 5th day): Not detected | Appearance and color ([1]; 10th day): White powder | Content ([1]; 10th day): 99.52% | Weight gain of moisture absorption ([1]; 10th day): 0.51% | Related substances ([1]; 10th day): Not detected | Weight gain of moisture absorption (trend) [1]: slightly increased | Stability in the light exposure test (conclusion) [2]: stable | Appearance and color ([2]; 0th day): White powder | Content ([2]; 0th day): 99.94% | Drying loss ([2]; 0th day): 0.35% | Related substances ([2]; 0th day): Not detected | Appearance and color ([2]; 5th day): White powder | Content ([2]; 5th day): 99.93% | Drying loss ([2]; 5th day): 0.33% | Related substances ([2]; 5th day): Not detected | Appearance and color ([2]; 10th day): White powder | Content ([2]; 10th day): 99.81% | Drying loss ([2]; 10th day): 0.39% | Related substances ([2]; 10th day): Not detected | Change in the appearance and color, the drying loss, the content and the related substances [3]: no obvious change | Stability in the accelerated test (conclusion) [4]: stable | Appearance and color ([4]; 0th month): White powder | Content ([4]; 0th month): 99.94% | Related substances ([4]; 0th month): Not detected | Appearance and color ([4]; 1st month): White powder | Content ([4]; 1st month): 99.81% | Related substances ([4]; 1st month): Not detected | Appearance and color ([4]; 2nd month): White powder | Content ([4]; 2nd month): 99.64% | Related substances ([4]; 2nd month): Not detected | Appearance and color ([4]; 3rd month): White powder | Content ([4]; 3rd month): 99.92% | Related substances ([4]; 3rd month): Not detected | Appearance and color ([4]; 6th month): White powder | Content ([4]; 6th month): 99.62% | Related substances ([4]; 6th month): Not detected | Amount of solvent for dissolving 1 g of tested drug (Solubility test; solvent 0.1M HCl): 700 mL | Solubility (Solubility test; solvent 0.1M HCl): Slightly soluble | Amount of solvent for dissolving tested drug (Solubility test; solvent 0.1M HCl): 7 mL | Amount of solvent for dissolving 1 g of tested drug (Solubility test; solvent 0.1M NaOH): 300 mL | Solubility (Solubility test; solvent 0.1M NaOH): Slightly soluble | Amount of solvent for dissolving tested drug (Solubility test; solvent 0.1M NaOH): 3 mL | Amount of solvent for dissolving 1 g of tested drug (Solubility test; solvent DMSO): 70 mL | Solubility (Solubility test; solvent DMSO): sparingly | Amount of solvent for dissolving tested drug (Solubility test; solvent DMSO): 0.7 mL | Amount of solvent for dissolving 1 g of tested drug (Solubility test; solvent Ethanol): 5500 mL | Solubility (Solubility test; solvent Ethanol): Very slightly | Amount of solvent for dissolving tested drug (Solubility test; solvent Ethanol): 55 mL | Amount of solvent for dissolving 1 g of tested drug (Solubility test; solvent Glacial acetic acid): 300 mL | Solubility (Solubility test; solvent Glacial acetic acid): Slightly soluble | Amount of solvent for dissolving tested drug (Solubility test; solvent Glacial acetic acid): 3.0 mL | Amount of solvent for dissolving 1 g of tested drug (Solubility test; solvent Methanol): 700 mL | Solubility (Solubility test; solvent Methanol): Slightly soluble | Amount of solvent for dissolving tested drug (Solubility test; solvent Methanol): 7.0 mL | Amount of solvent for dissolving 1 g of tested drug (Solubility test; solvent Water): 800 mL | Solubility (Solubility test; solvent Water): Slightly soluble | Amount of solvent for dissolving tested drug (Solubility test; solvent Water): 8.0 mL
SMILES: Cn1nnc2c(C(N)=O)ncn2c1=O [Form A, Temozolomide]

— patent US9714250B2, “Crystalline forms of temozolomide and the method for preparing same” (Jiangsu Tasly Diyi Pharmaceutical Co., Ltd., priority 2013, dated 2017)
